The values that follow are results of earlier work, collected in patent US20050042280A1, “Aqueous based pharmaceutical formulations of water-soluble prodrugs of propofol” (priority 2001, published 2005).

SMILES strings stand for the structures.

For the data set the following is noted: anesthetic induction doses, Bryson et al., Drugs 50 (1995) at 520.

As to `CC(C)c1cccc(C(C)C)c1O` [propofol, 2,6-diisopropylphenol], the “patients with respiratory consequences, including a reduction in tidal volume and apnea” value was “up to 83%”.
